Data taken from ChEMBL document CHEMBL3885881, “DrugMatrix”.

Species: Rattus norvegicus
Assay: DrugMatrix - Regimen: Daily Repeat
Type: toxicity, organism-based, Sprague-Dawley
Design: regimen Daily Repeat, gender Male, age 6-8 weeks
Conditions: in vivo, iv, vehicle 100 % SALINE; for ABSOLUTE BASOPHIL / ABSOLUTE EOSINOPHIL / ABSOLUTE LYMPHOCYTE / ABSOLUTE MONOCYTE / ABSOLUTE SEGMENTED NEUTROPHIL / BASOPHIL / EOSINOPHIL / ERYTHROCYTE COUNT / HEMATOCRIT / HEMOGLOBIN / LEUKOCYTE COUNT / LYMPHOCYTE / MEAN CORPUSCULAR HEMOGLOBIN / MEAN CORPUSCULAR HEMOGLOBIN CONCENTRATION / MEAN CORPUSCULAR VOLUME / MONOCYTE / NEUTROPHIL / NUCLEATED RED BLOOD CELLS / PLATELET COUNT: tissue Blood; for ALANINE AMINOTRANSFERASE / ALBUMIN / ALKALINE PHOSPHATASE / ASPARTATE AMINOTRANSFERASE / BLOOD UREA NITROGEN / CARBON DIOXIDE / CHOLESTEROL / CREATINE PHOSPHOKINASE / CREATININE / GLUCOSE / LACTATE DEHYDROGENASE / LIPASE / PHOSPHORUS / POTASSIUM / SODIUM / TOTAL BILIRUBIN / TOTAL PROTEIN / URIC ACID: tissue Plasma
[1] = 0 mg/kg, 72 h, dose level Control, time 3 day
[2] = 0 mg/kg, 120 h, dose level Control, time 5 day
[3] = 18 mg/kg, 72 h, dose level High, time 3 day

Structure (SMILES): N=C(N)c1ccc(OCCCCCOc2ccc(C(=N)N)cc2)cc1 [PENTAMIDINE]
- ABSOLUTE BASOPHIL [1]: 0 CELLS/uL
- ABSOLUTE EOSINOPHIL [1]: 193.5 CELLS/uL
- ABSOLUTE LYMPHOCYTE [1]: 15717.5 CELLS/uL
- ABSOLUTE MONOCYTE [1]: 389.33 CELLS/uL
- ABSOLUTE SEGMENTED NEUTROPHIL [1]: 1883 CELLS/uL
- BASOPHIL [1]: 0%
- EOSINOPHIL [1]: 1.17%
- ERYTHROCYTE COUNT [1]: 5.68 x10E6/uL
- HEMATOCRIT [1]: 35.83%
- HEMOGLOBIN [1]: 13.48 G/DL
- LEUKOCYTE COUNT [1]: 18.18 x10E3/uL
- LYMPHOCYTE [1]: 86.67%
- MEAN CORPUSCULAR HEMOGLOBIN [1]: 23.8 pg
- MEAN CORPUSCULAR HEMOGLOBIN CONCENTRATION [1]: 37.68 G/DL
- MEAN CORPUSCULAR VOLUME [1]: 63.27 fL
- MONOCYTE [1]: 2.17%
- NEUTROPHIL [1]: 10%
- NUCLEATED RED BLOOD CELLS [1]: 0 /100WBC
- PLATELET COUNT [1]: 1186.33 x10E3/uL
- ALANINE AMINOTRANSFERASE [1]: 68.5 u/L
- ALBUMIN [1]: 4.37 G/DL
- ALKALINE PHOSPHATASE [1]: 396.33 u/L
- ASPARTATE AMINOTRANSFERASE [1]: 92.5 u/L
- BLOOD UREA NITROGEN [1]: 18 mg/dL
- CARBON DIOXIDE [1]: 24.33 mmol/L
- CHOLESTEROL [1]: 67.17 mg/dL
- CREATINE PHOSPHOKINASE [1]: 378.67 u/L
- CREATININE [1]: 0.19 mg/dL
- GLUCOSE [1]: 178.33 mg/dL
- LACTATE DEHYDROGENASE [1]: 245.17 u/L
- LIPASE [1]: 9.2 u/L
- PHOSPHORUS [1]: 12.37 mg/dL
- POTASSIUM [1]: 6.48 MEQ/L
- SODIUM [1]: 143.28 MEQ/L
- TOTAL BILIRUBIN [1]: 0.23 mg/dL
- TOTAL PROTEIN [1]: 5.65 G/DL
- URIC ACID [1]: 1.6 mg/dL
- ABSOLUTE BASOPHIL [2]: 0 CELLS/uL
- ABSOLUTE EOSINOPHIL [2]: 27.5 CELLS/uL
- ABSOLUTE LYMPHOCYTE [2]: 13593.17 CELLS/uL
- ABSOLUTE MONOCYTE [2]: 576 CELLS/uL
- ABSOLUTE SEGMENTED NEUTROPHIL [2]: 1836.67 CELLS/uL
- BASOPHIL [2]: 0%
- EOSINOPHIL [2]: 0.17%
- ERYTHROCYTE COUNT [2]: 5.99 x10E6/uL
- HEMATOCRIT [2]: 37.42%
- HEMOGLOBIN [2]: 13.78 G/DL
- LEUKOCYTE COUNT [2]: 16.03 x10E3/uL
- LYMPHOCYTE [2]: 85.17%
- MEAN CORPUSCULAR HEMOGLOBIN [2]: 23.08 pg
- MEAN CORPUSCULAR HEMOGLOBIN CONCENTRATION [2]: 36.83 G/DL
- MEAN CORPUSCULAR VOLUME [2]: 62.6 fL
- MONOCYTE [2]: 3.5%
- NEUTROPHIL [2]: 11.17%
- NUCLEATED RED BLOOD CELLS [2]: 0 /100WBC
- PLATELET COUNT [2]: 1352.5 x10E3/uL
- ALANINE AMINOTRANSFERASE [2]: 49.83 u/L
- ALBUMIN [2]: 4.25 G/DL
- ALKALINE PHOSPHATASE [2]: 331.33 u/L
- ASPARTATE AMINOTRANSFERASE [2]: 86.17 u/L
- BLOOD UREA NITROGEN [2]: 19.5 mg/dL
- CARBON DIOXIDE [2]: 26.67 mmol/L
- CHOLESTEROL [2]: 67.5 mg/dL
- CREATINE PHOSPHOKINASE [2]: 346.17 u/L
- CREATININE [2]: 0.22 mg/dL
- GLUCOSE [2]: 170.67 mg/dL
- LACTATE DEHYDROGENASE [2]: 405.5 u/L
- LIPASE [2]: 8.83 u/L
- PHOSPHORUS [2]: 11.3 mg/dL
- POTASSIUM [2]: 6.06 MEQ/L
- SODIUM [2]: 143.4 MEQ/L
- TOTAL BILIRUBIN [2]: 0.17 mg/dL
- TOTAL PROTEIN [2]: 6.22 G/DL
- URIC ACID [2]: 1.63 mg/dL
- ABSOLUTE BASOPHIL [3]: 0 CELLS/uL
- ABSOLUTE EOSINOPHIL [3]: 160 CELLS/uL
- ABSOLUTE LYMPHOCYTE [3]: 13847.33 CELLS/uL
- ABSOLUTE MONOCYTE [3]: 361.33 CELLS/uL
- BASOPHIL [3]: 0%
- EOSINOPHIL [3]: 1%
- ERYTHROCYTE COUNT [3]: 5.86 x10E6/uL
- HEMATOCRIT [3]: 36.7%
- HEMOGLOBIN [3]: 13.8 G/DL
- LEUKOCYTE COUNT [3]: 15.4 x10E3/uL
- LYMPHOCYTE [3]: 90%
- MEAN CORPUSCULAR HEMOGLOBIN [3]: 23.57 pg
- MEAN CORPUSCULAR HEMOGLOBIN CONCENTRATION [3]: 37.6 G/DL
- MEAN CORPUSCULAR VOLUME [3]: 62.63 fL
- MONOCYTE [3]: 2.33%
- NEUTROPHIL [3]: 6.67%
- NUCLEATED RED BLOOD CELLS [3]: 0 /100WBC
- PLATELET COUNT [3]: 1444.67 x10E3/uL
- ALANINE AMINOTRANSFERASE [3]: 52 u/L
- ALBUMIN [3]: 4.13 G/DL
- ALKALINE PHOSPHATASE [3]: 303.67 u/L
- ASPARTATE AMINOTRANSFERASE [3]: 79 u/L
- BLOOD UREA NITROGEN [3]: 19 mg/dL
- CARBON DIOXIDE [3]: 26.67 mmol/L
- CHOLESTEROL [3]: 75.33 mg/dL
- CREATINE PHOSPHOKINASE [3]: 308.67 u/L
- CREATININE [3]: 0.22 mg/dL
- GLUCOSE [3]: 158.33 mg/dL
- LACTATE DEHYDROGENASE [3]: 129.67 u/L
- LIPASE [3]: 8.67 u/L
- PHOSPHORUS [3]: 11.17 mg/dL
- POTASSIUM [3]: 6.46 MEQ/L
- SODIUM [3]: 142 MEQ/L
- TOTAL BILIRUBIN [3]: 0.23 mg/dL
- TOTAL PROTEIN [3]: 6.13 G/DL
- URIC ACID [3]: 1.7 mg/dL
